Here are results for two molecules from patent US20250332154A1, “USE OF NAPHTHOQUINE PHOSPHATE IN PREPARATION OF A MEDICAMENT FOR TREATING AUTOIMMUNE DISEASES” (SHANGHAI PHARMACEUTICALS INDUSTRY CO., LTD, priority 2022, published 2025).

A short description of series [1]: Non-specific cytotoxicity assay (MTT), mouse spleen lymphocytes. The conditions noted are these: BALB/c, mouse, mouse whole spleen lymphocytes. It is filed as cell-based. The procedure:
BALB/c mice were sacrificed by cervical dislocation, and spleens were aseptically excised to prepare whole spleen lymphocytes. The cells were adjusted to the required concentration. The compound concentrations started at 250 μM and was diluted with a 4-fold gradient to obtain 10 concentrations: 250, 62.5, 15.625, 3.906, 0.977, 0.244, 0.061, 0.015, 0.004 and 0.001 μM.
A suspension of mouse spleen lymphocytes was inoculated into a 96-well plate at 8×10^5/well, and the above 10 concentration gradients of the compound were added. A corresponding cell control (i.e. spleen lymphocyte culture system without compound) and a RPMI 1640 culture medium background control (blank culture medium control) were set up. The cells were cultured in a 37° C., 5% CO2 incubator for 48 hours. Four hours before the end of the culture, 20 μl of 5 mg/ml MTT solution was added, and the reaction continued until the end of the culture (i.e. the aforementioned 48 hours). The supernatant was aspirated and discarded, 200 μl DMSO was added to each well to dissolve the crystals. […]. The absorbance value was measured at […] with a microplate reader (Spectra Max 190, Molecular Devices).

In another series the test system is IL-10. Put plainly: IL-10 secretion by TLRs-L-stimulated mouse whole spleen lymphocytes (ELISA). It is filed as cell-based. The conditions noted are these: Lymphocyte, 48 h. The procedure: (§1) BALB/c mice were sacrificed by cervical dislocation, and spleens were aseptically excised to prepare whole spleen lymphocytes. The cells were adjusted to 5×10^6 cells/ml. Hydroxychloroquine sulfate was diluted with a 3-fold gradient into 3 concentrations starting from 30 μM: 30, 10 and 3 μM; naphthoquine phosphate was diluted with a 3-fold gradient into 3 concentrations starting from 10 μM: 10, 3 and 1 μM.
(§2) Mouse spleen lymphocytes were inoculated into a 96-well plate at 100 μl/well, and the stimulant TLR4-L (final concentration: 10 μg/ml), TLR7-L (final concentration: 5 μg/ml) or TLR9-L (final concentration: 1 μM) and the compounds diluted with the above concentration gradients were added. A corresponding stimulation control and a cell control (without stimulation) were set up. The cells were cultured in a 37° C., 5% CO2 incubator for 48 hours. After the end of the culture, the cell culture supernatants were collected, and the levels of IL-1β, IL-6, and IL-10 were measured by ELISA.
(In an ELISA, binding on a coated surface is turned into a signal by an enzyme label.)

Another series relates to IL-6. Put plainly: IL-6 secretion by TLRs-L-stimulated mouse whole spleen lymphocytes (ELISA). Format: cell-based. The note with it: Lymphocyte, 48 h. The procedure:
as §1, §2

Series [2] has as its system purified splenic B cells of arthritic mice. Kind of series: TLRs-L-induced activation of purified splenic B cells from treated arthritic mice. Format: in vivo, mouse. The conditions noted are these: intragastric 50, 100 mg/kg, FIG. 6. The procedure:
Normal group, model group, positive medicament (1 mg/kg methotrexate) group, naphthoquine phosphate (50, 100 mg/kg) group, hydroxychloroquine sulfate (100 mg/kg) group.
Same as those described in Example 5.
At the end of the experiment, spleens of mice in each group were collected, and splenic B cells were purified as described in Example 4. Different TLRs-L were used for stimulation. ^3H-TDR incorporation method was used to detect proliferation, ELISA method was used to detect the levels of IL-6 and antibody secretion, and flow cytometry was used to detect the expressions of CD80, CD86, and CD69.
Suspensions of purified mouse B cells from each group were inoculated into a 96-well plate at 4×10^5/well, and the stimulant TLR4-L (final concentration: 10 μg/ml), TLR7-L (final concentration: 5 μg/ml) or TLR9-L (final concentration: 1 μM) was added. […] 5 ml scintillation fluid was added, and the values of radioactive counts per minute were read on a Beta counter (2450 Microplate Counter, PerkinElmer).
Suspensions of purified mouse B cells from each group were inoculated into a 96-well plate at 4×10^5/well, and the stimulant TLR4-L (final concentration: 10 μg/ml), TLR7-L (final concentration: 5 μg/ml) or TLR9-L (final concentration: 1 μM) was added. […] After the end of the culture, the cell culture supernatants were collected, and the level of IL-6 was measured by ELISA. […]

The subject of series [3] is bovine type II collagen-induced arthritis in mice. Put plainly: Bone morphological analysis by Micro-CT in arthritic mice. The conditions noted are these: intragastric, FIG. 5. It is filed as in vivo, mouse. The procedure:
Normal group, model group, positive medicament (1 mg/kg dexamethasone) group, naphthoquine phosphate (25, 50, 100 mg/kg) groups, hydroxychloroquine sulfate (100 mg/kg) group.
10 mg of Type II Collagen (CII) was swollen in 2.5 ml of 0.1 mol/L glacial acetic acid to prepare a 4 mg/ml CII solution. This solution was fully emulsified with an equal volume of CFA, and injected subcutaneously (50 μl) at the base of the tail of mice. After 21 days, 4 mg/ml CII solution was fully emulsified with an equal volume of IFA. This mixture was injected subcutaneously (50 μL) at the base of the tail of mice to boost the immune response.
Three-dimensional reconstruction was performed by the micro-CT technology, and bone morphology analysis was performed by professional analysis software.

Where a name gives a salt, the structure may show the parent alone.

A word on the CC50: it is the concentration at which the toxic effect on the cells reaches its halfway point. The low end stands for harm at low concentration, the high end for better tolerance by the cells. Broadly, the IC50 is the concentration needed to halve the response being measured. Lower therefore signals inhibition by little substance.

On to `CCN(CCO)CCCC(C)Nc1ccnc2cc(Cl)ccc12` (stereo not shown) [Hydroxychloroquine Sulfate, hydroxychloroquine sulfate], for which the CC50 at 48 h in series [1] is 25200 nM. Moreover, the IC50 stood at 3190 nM in the series on IL-10 (stimulant TLR4-L 10 μg/ml); 1110 nM in the series with IL-10 (stimulant TLR7-L 5 μg/ml); 3300 nM in the series with IL-10 (stimulant TLR9-L 1 μM); 15300 nM in the series with IL-6 (stimulant TLR4-L 10 μg/ml); 1900 nM in the series with IL-6 (stimulant TLR7-L 5 μg/ml); 3920 nM with IL-6 (stimulant TLR9-L 1 μM).
`CC(C)(C)NCc1cc(Nc2ccnc3cc(Cl)ccc23)c2c(c1O)CCCC2.O=P(O)(O)O.O=P(O)(O)O` [Naphthoquine Phosphate, Naphthoquine phosphate]: the CC50 at 48 h in series [1] came to 1450 nM. Further, in series [2], the “B cell activation, cytokine secretion and antibody production mediated by TLR signaling” value is “significantly inhibited”. The “bone damage in model mice (Micro-CT)” value in series [3] is “inhibited”. Moreover, the IC50 in the series on IL-10 (stimulant TLR4-L 10 μg/ml) came to 106 nM; in the series with IL-10 (stimulant TLR7-L 5 μg/ml), 39 nM; in the series on IL-10 (stimulant TLR9-L 1 μM) it was 190 nM; in the series on IL-6 (stimulant TLR4-L 10 μg/ml), 630 nM; with IL-6 (stimulant TLR7-L 5 μg/ml), 7 nM; in the series with IL-6 (stimulant TLR9-L 1 μM), 290 nM.
